Target: T1, PRKD2 (PKD2) (Homo sapiens, UniProt Q9BZL6)
T1 construct: purchased Thermo Fisher Scientific (Life Technologies) SelectScreen
Assay: SelectScreen Z'LYTE
Assay type: biochemical
Procedure, shortened: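 SelectScreen broad panel; activity (Z'LYTE, Adapta) plus binding formats. ATP: Km app for CSF1R Z'LYTE; 10 for CAMK1 Adapta. Readout = % per kinase.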

T1 sequence (Q9BZL6 whole entry): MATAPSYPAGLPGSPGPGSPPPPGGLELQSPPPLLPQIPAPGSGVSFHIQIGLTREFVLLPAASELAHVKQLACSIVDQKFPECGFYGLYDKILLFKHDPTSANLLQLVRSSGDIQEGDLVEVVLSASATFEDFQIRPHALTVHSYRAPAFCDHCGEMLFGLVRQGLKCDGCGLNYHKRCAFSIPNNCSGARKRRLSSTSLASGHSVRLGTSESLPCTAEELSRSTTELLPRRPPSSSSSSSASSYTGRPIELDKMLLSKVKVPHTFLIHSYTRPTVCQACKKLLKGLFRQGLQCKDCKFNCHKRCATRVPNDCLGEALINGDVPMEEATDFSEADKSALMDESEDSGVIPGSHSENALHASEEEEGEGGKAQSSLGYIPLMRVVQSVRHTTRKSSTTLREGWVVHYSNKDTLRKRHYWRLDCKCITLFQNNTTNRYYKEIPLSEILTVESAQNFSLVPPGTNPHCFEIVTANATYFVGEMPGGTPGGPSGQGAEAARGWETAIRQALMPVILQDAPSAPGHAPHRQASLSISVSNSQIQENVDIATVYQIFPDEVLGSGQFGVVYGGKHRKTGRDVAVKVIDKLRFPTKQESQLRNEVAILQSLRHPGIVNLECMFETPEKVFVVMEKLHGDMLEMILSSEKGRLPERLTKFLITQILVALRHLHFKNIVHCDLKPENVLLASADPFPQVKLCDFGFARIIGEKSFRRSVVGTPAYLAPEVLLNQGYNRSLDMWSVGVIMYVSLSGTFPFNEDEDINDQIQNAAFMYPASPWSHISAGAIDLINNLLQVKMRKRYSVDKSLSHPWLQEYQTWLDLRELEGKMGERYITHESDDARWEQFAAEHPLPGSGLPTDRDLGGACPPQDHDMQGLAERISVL

CN(C(=O)CN1CCOCC1)c1ccc2sc3c(-c4cccc5c(=O)cc(N6CC7CCC(C6)O7)oc45)cccc3c2c1 [NU5455]
inhibition at 1 µM: -9.1%

Reference: paper PMC6934184, “Selective DNA-PKcs inhibition extends the therapeutic index of localized radiotherapy and chemotherapy” (The Journal of Clinical Investigation, 2019)
